Measured values from ChEMBL document CHEMBL5505994, “Nur77 increases mitophagy and decreases aggregation of α-synuclein by modulating the p-c-Abl/p-PHB2 Y121 in α-synuclein PFF SH-SY5Y cells and mice” (Eur J Med Chem, 2024).
Active and inactive are the calls of the source.

Tests used:
[1] = test system: SH-SY5Y; test: Agonist activity at Nur77-c-Abl-PHB2 pathway in alpha-synuclein preformed fibril-induced human SH-SY5Y cells assessed as decrease in c-Abl phosphorylation at 1 uM treated for 24 hrs by Western blot analysis; type: cell-based; details: filed as agonist
[2] = test system: SH-SY5Y; test: Agonist activity at Nur77-c-Abl-PHB2 pathway in alpha-synuclein preformed fibril-induced human SH-SY5Y cells assessed as translocation of Nur77 into mitochondria at 1 uM treated for 24 hrs by Western blot analysis; details: filed as agonist
[3] = test system: SH-SY5Y; test: Agonist activity at Nur77-c-Abl-PHB2 pathway in alpha-synuclein preformed fibril-induced human SH-SY5Y cells assessed as interaction with c-Abl at 1 uM treated for 24 hrs by Co-immunoprecipitation (Co-IP) assay; type: cell-based; details: filed as agonist
[4] = test system: SH-SY5Y; test: Agonist activity at Nur77-c-Abl-PHB2 pathway in alpha-synuclein preformed fibril-induced human SH-SY5Y cells assessed as increase in ratio of LC3-II/LC3I at 1 uM treated for 24 hrs by Western blot analysis; type: cell-based; details: filed as agonist
[5] = test system: SH-SY5Y; test: Agonist activity at Nur77-c-Abl-PHB2 pathway in alpha-synuclein preformed fibril-induced human SH-SY5Y cells assessed as decrease in p62 expression at 1 uM treated for 24 hrs by Western blot analysis; type: cell-based; details: filed as agonist
[6] = test system: SH-SY5Y; test: Agonist activity at Nur77-c-Abl-PHB2 pathway in alpha-synuclein preformed fibril-induced human SH-SY5Y cells assessed as reduction in PHB2 phosphorylation at 1 uM treated for 24 hrs by Western blot analysis; type: cell-based; details: filed as agonist
[7] = test system: SH-SY5Y; test: Agonist activity at Nur77 in alpha-synuclein preformed fibril-induced human SH-SY5Y cells assessed as reduction in alpha-synuclein aggregation at 1 uM treated for 24 hrs by Western blot analysis; type: cell-based; details: filed as agonist
[8] = test system: SH-SY5Y; test: Agonist activity at Nur77-c-Abl-PHB2 pathway in alpha-synuclein preformed fibril-induced human SH-SY5Y cells assessed as increase in PHB2/LC3 interaction at 1 uM treated for 24 hrs by Co-immunoprecipitation (Co-IP) assay; type: cell-based; details: filed as agonist
[9] = species on record: Mus musculus; test: Neuroprotection activity in alpha-synuclein preformed fibril-induced C57BL/6J mouse PD model assessed as decrease in phosphorylated c-Abl level in brain at 1 uM treated after 3 month PPF challenge measured after 14 days by Western blot analysis; type: functional, organism-based; details: time 14.0 day
[10] = species on record: Mus musculus; test: Neuroprotection activity in alpha-synuclein preformed fibril-induced C57BL/6J mouse PD model assessed as decrease in phosphorylated […] level in brain at 1 uM treated after 3 month PPF challenge measured after 14 days by Western blot analysis; type: functional, organism-based; details: time 14.0 day
[11] = species on record: Mus musculus; test: Neuroprotection activity in alpha-synuclein preformed fibril-induced C57BL/6J mouse PD model assessed as increase in LC3 level in brain at 1 uM treated after 3 month PPF challenge measured after 14 days by Western blot analysis; type: functional, organism-based; details: time 14.0 day
[12] = species on record: Mus musculus; test: Neuroprotection activity in alpha-synuclein preformed fibril-induced C57BL/6J mouse PD model assessed as decrease in p62 expression in brain at 1 uM treated after 3 month PPF challenge measured after 14 days by Western blot analysis; type: functional, organism-based; details: time 14.0 day
[13] = species on record: Mus musculus; test: Neuroprotection activity in alpha-synuclein preformed fibril-induced C57BL/6J mouse PD model assessed as decrease in pS129-alpha-synuclein in SNpc TH positive neurons in brain at 1 uM treated after 3 month PPF challenge measured after 14 days by Western blot analysis; type: functional, organism-based; details: time 14.0 day
[14] = species on record: Mus musculus; test: Neuroprotection activity in alpha-synuclein preformed fibril-induced C57BL/6J mouse PD model assessed as rescue of DA neurons in brain by measuring TH positive neurons at 1 uM treated after 3 month PPF challenge measured after 14 days by immunohistochemistry; type: functional, organism-based; details: time 14.0 day

Measured: Activity

CCCCCCCC(=O)c1c(O)cc(O)cc1CC(=O)OCC
active: all assays above
